# Experimental data: US6355799B1, “Substituted benzene compounds, process for their preparation, and herbicidal and defoliant compositions containing them” (ISK Americas Incorporated, priority 1997, dated 2002)
# Legend:
# Assay type in all cases: in vivo
# [1] = test system: upland rice (Oryza sp., var. Tebonnet, RICE); assay: Post-emerge test, crop safety; details: post-emerge, 14 days after application, rating scale 0-100
# In short: (§1)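 Fourteen days after spraying, crop and weed injury was graded visually from 0, no effect, to 100, every plant dead. Test substances were dissolved in acetone and applied at 15–1000 g ai/ha with a flat-fan nozzle. Application was either pre-emergence, one day after sowing, or post-emergence at the 2–3 leaf stage.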
# [2] = test system: field corn (Zea mays L., var. Dekalb 535, CORN); assay: Post-emerge test, crop safety; details: post-emerge, 14 days after application, rating scale 0-100
# In short: as §1
# [3] = test system: redroot pigweed (Amaranthus retroflexus, AMARE); assay: Pre-emerge test, greenhouse herbicide activity screening; details: for Pre-emerge Herbicidal Activity AMARE: phytotoxicity rating 0-100, 14 days after application; for phytotoxicity rating AMARE: pre-emerge, 14 days after application, rating scale 0-100
# In short: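 Plants grown in 10 cm pots of sandy loam mix received acetone-dissolved compounds through a moving flat-fan nozzle. Doses ranged from 15 to 1000 g ai/ha. Pre-emerge pots were seeded one day earlier, post-emerge pots 8–21 days earlier. Fourteen days on, each pot was graded 0–100 for damage.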
# [4] = test system: ivyleaf morningglory (Ipomoea hederacea, IPOHE); assay: as above; details: for Pre-emerge Herbicidal Activity IPOHE: phytotoxicity rating 0-100, 14 days after application; for phytotoxicity rating IPOHE: pre-emerge, 14 days after application, rating scale 0-100
# In short: as §1
# [5] = test system: barnyardgrass (Echinochloa crus-galli, ECHCG); assay: as above; details: for Pre-emerge Herbicidal Activity ECHCG: phytotoxicity rating 0-100, 14 days after application; for phytotoxicity rating ECHCG: pre-emerge, 14 days after application, rating scale 0-100
# In short: as §1
# [6] = test system: johnsongrass (Sorghum halepense, SORHA); assay: as above; details: for Pre-emerge Herbicidal Activity SORHA: phytotoxicity rating 0-100, 14 days after application; for phytotoxicity rating SORHA: pre-emerge, 14 days after application, rating scale 0-100
# In short: as §1
# [7] = test system: green foxtail (Setaria viridis, SETVI); assay: as above; details: for Pre-emerge Herbicidal Activity SETVI: phytotoxicity rating 0-100, 14 days after application; for phytotoxicity rating SETVI: pre-emerge, 14 days after application, rating scale 0-100
# In short: as §1
# [8] = test system: large crabgrass (Digitaria sanguinalis, DIGSA); assay: as above; details: for Pre-emerge Herbicidal Activity DIGSA: phytotoxicity rating 0-100, 14 days after application; for phytotoxicity rating DIGSA: pre-emerge, 14 days after application, rating scale 0-100
# In short: as §1
# [9] = test system: sicklepod (Cassia obtusifolia, CASOB); assay: as above; details: for Pre-emerge Herbicidal Activity CASOB: phytotoxicity rating 0-100, 14 days after application; for phytotoxicity rating CASOB: pre-emerge, 14 days after application, rating scale 0-100
# In short: as §1
# [10] = test system: lambsquarters (Chenopodium album, CHEAL); assay: as above; details: for Pre-emerge Herbicidal Activity CHEAL: phytotoxicity rating 0-100, 14 days after application; for phytotoxicity rating CHEAL: pre-emerge, 14 days after application, rating scale 0-100
# In short: as §1
# [11] = test system: velvetleaf (Abutilon theophrasti, ABUTH); assay: as above; details: for Pre-emerge Herbicidal Activity ABUTH: phytotoxicity rating 0-100, 14 days after application; for phytotoxicity rating ABUTH: pre-emerge, 14 days after application, rating scale 0-100
# In short: as §1
# [12] = test system: ivyleaf morningglory (Ipomoea hederacea, IPOHE); assay: Post-emerge test, greenhouse herbicide activity screening; details: post-emerge, 14 days after application, rating scale 0-100
# In short: (§2)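 Sandy loam pots; pre-emerge: sown 1 d pre-spray, surface-watered after, then bottom-watered. Post-emerge: sown 8–21 d before, 2–3 leaf stage, + 0.25% v/v NIS, bottom-watered. Acetone, 187 l/ha track spray, 15–1000 g ai/ha. 0–100 injury score, day 14.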
# [13] = test system: barnyardgrass (Echinochloa crus-galli, ECHCG); assay: as above; details: post-emerge, 14 days after application, rating scale 0-100
# In short: as §2
# [14] = test system: johnsongrass (Sorghum halepense, SORHA); assay: as above; details: post-emerge, 14 days after application, rating scale 0-100
# In short: as §2
# [15] = test system: green foxtail (Setaria viridis, SETVI); assay: as above; details: post-emerge, 14 days after application, rating scale 0-100
# In short: as §2
# [16] = test system: redroot pigweed (Amaranthus retroflexus, AMARE); assay: as above; details: post-emerge, 14 days after application
# In short: as §2
# [17] = test system: large crabgrass (Digitaria sanguinalis, DIGSA); assay: as above; details: post-emerge, 14 days after application, rating scale 0-100
# In short: as §2
# [18] = test system: sicklepod (Cassia obtusifolia, CASOB); assay: as above; details: post-emerge, 14 days after application, rating scale 0-100
# In short: as §2
# [19] = test system: lambsquarters (Chenopodium album, CHEAL); assay: as above; details: post-emerge, 14 days after application, rating scale 0-100
# In short: as §2
# [20] = test system: velvetleaf (Abutilon theophrasti, ABUTH); assay: as above; details: post-emerge, 14 days after application, rating scale 0-100
# In short: as §2
# [21] = test system: upland rice (Oryza sp., var. Tebonnet, RICE); assay: Pre-emerge test, crop safety; details: for Pre-emerge Herbicidal Activity RICE: crop damage rating 0-100, 14 days after application; for phytotoxicity rating RICE: pre-emerge, 14 days after application, rating scale 0-100
# In short: (§3)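 Compounds in acetone were track-sprayed at 15-1000 g ai/ha (187 l/ha) on sandy loam pots: pre-emerge one day after seeding, post-emerge at 2-3 leaf stage with 0.25% v/v non-ionic surfactant. Phytotoxicity was rated 14 days later on a 0 (no damage) to 100 (complete death) scale.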
# [22] = test system: field corn (Zea mays L., var. Dekalb 535, CORN); assay: Pre-emerge test, crop safety; details: for Pre-emerge Herbicidal Activity CORN: crop damage rating 0-100, 14 days after application; for phytotoxicity rating CORN: pre-emerge, 14 days after application, rating scale 0-100
# In short: as §3
smiles,measurement,setting,value
CCOC(=O)COc1c(Cl)cc(F)c(-n2c(=O)cc(C(F)(F)F)n(C)c2=O)c1NC(=O)c1ccc2ccccc2c1 [2-189],RICE phytotoxicity rating (crop damage),[1]; 40.5 g ai/ha,0
same,RICE phytotoxicity rating (crop damage),[1]; 162 g ai/ha,5
same,CORN phytotoxicity rating (crop damage),[2]; 40.5 g ai/ha,0
same,CORN phytotoxicity rating (crop damage),[2]; 162 g ai/ha,5
same,Pre-emerge Herbicidal Activity AMARE,[3]; 40.5 g ai/ha,95
same,Pre-emerge Herbicidal Activity AMARE,[3]; 162 g ai/ha,90
same,Pre-emerge Herbicidal Activity IPOHE,[4]; 40.5 g ai/ha,0
same,Pre-emerge Herbicidal Activity IPOHE,[4]; 162 g ai/ha,20
same,Pre-emerge Herbicidal Activity ECHCG,[5]; 40.5 g ai/ha,0
same,Pre-emerge Herbicidal Activity ECHCG,[5]; 162 g ai/ha,0
same,Pre-emerge Herbicidal Activity SORHA,[6]; 40.5 g ai/ha,0
same,Pre-emerge Herbicidal Activity SORHA,[6]; 162 g ai/ha,0
same,Pre-emerge Herbicidal Activity SETVI,[7]; 40.5 g ai/ha,0
same,Pre-emerge Herbicidal Activity SETVI,[7]; 162 g ai/ha,0
same,Pre-emerge Herbicidal Activity DIGSA,[8]; 40.5 g ai/ha,0
same,Pre-emerge Herbicidal Activity DIGSA,[8]; 162 g ai/ha,0
same,Pre-emerge Herbicidal Activity CASOB,[9]; 40.5 g ai/ha,0
same,Pre-emerge Herbicidal Activity CASOB,[9]; 162 g ai/ha,10
same,Pre-emerge Herbicidal Activity CHEAL,[10]; 40.5 g ai/ha,100
same,Pre-emerge Herbicidal Activity CHEAL,[10]; 162 g ai/ha,100
same,Pre-emerge Herbicidal Activity ABUTH,[11]; 40.5 g ai/ha,70
same,Pre-emerge Herbicidal Activity ABUTH,[11]; 162 g ai/ha,100
same,IPOHE phytotoxicity rating,[12]; 40.5 g ai/ha,60
same,IPOHE phytotoxicity rating,[12]; 162 g ai/ha,100
same,ECHCG phytotoxicity rating,[13]; 40.5 g ai/ha,0
same,ECHCG phytotoxicity rating,[13]; 162 g ai/ha,10
same,SORHA phytotoxicity rating,[14]; 40.5 g ai/ha,0
same,SORHA phytotoxicity rating,[14]; 162 g ai/ha,0
same,SETVI phytotoxicity rating,[15]; 40.5 g ai/ha,0
same,SETVI phytotoxicity rating,[15]; 162 g ai/ha,0
same,AMARE phytotoxicity rating,"[16]; 40.5 g ai/ha, rating scale 0-100",100
same,AMARE phytotoxicity rating,"[16]; 162 g ai/ha, rating scale 0-100",100
same,DIGSA phytotoxicity rating,[17]; 40.5 g ai/ha,0
same,DIGSA phytotoxicity rating,[17]; 162 g ai/ha,0
same,CASOB phytotoxicity rating,[18]; 40.5 g ai/ha,40
same,CASOB phytotoxicity rating,[18]; 162 g ai/ha,60
same,CHEAL phytotoxicity rating,[19]; 40.5 g ai/ha,100
same,CHEAL phytotoxicity rating,[19]; 162 g ai/ha,100
same,ABUTH phytotoxicity rating,[20]; 40.5 g ai/ha,85
same,ABUTH phytotoxicity rating,[20]; 162 g ai/ha,100
same,Pre-emerge Herbicidal Activity RICE,[21]; 40.5 g ai/ha,0
same,Pre-emerge Herbicidal Activity RICE,[21]; 162 g ai/ha,0
same,Pre-emerge Herbicidal Activity CORN,[22]; 40.5 g ai/ha,0
same,Pre-emerge Herbicidal Activity CORN,[22]; 162 g ai/ha,0
Cn1c(C(F)(F)F)cc(=O)n(-c2ccc(Cl)cc2/C=C/c2ccc3ccccc3c2)c1=O [14-59],Post-emerge Herbicidal Activity RICE (crop damage rating),[1]; 63 g ai/ha,0
same,Post-emerge Herbicidal Activity RICE (crop damage rating),[1]; 250 g ai/ha,0
same,Post-emerge Herbicidal Activity CORN (crop damage rating),[2]; 63 g ai/ha,0
same,Post-emerge Herbicidal Activity CORN (crop damage rating),[2]; 250 g ai/ha,0
same,phytotoxicity rating AMARE,[3]; 63 g ai/ha,0
same,phytotoxicity rating AMARE,[3]; 250 g ai/ha,0
same,phytotoxicity rating IPOHE,[4]; 63 g ai/ha,0
same,phytotoxicity rating IPOHE,[4]; 250 g ai/ha,0
same,phytotoxicity rating ECHCG,[5]; 63 g ai/ha,0
same,phytotoxicity rating ECHCG,[5]; 250 g ai/ha,0
same,phytotoxicity rating SORHA,[6]; 63 g ai/ha,0
same,phytotoxicity rating SORHA,[6]; 250 g ai/ha,0
same,phytotoxicity rating SETVI,[7]; 63 g ai/ha,0
same,phytotoxicity rating SETVI,[7]; 250 g ai/ha,0
same,phytotoxicity rating DIGSA,[8]; 63 g ai/ha,0
same,phytotoxicity rating DIGSA,[8]; 250 g ai/ha,0
same,phytotoxicity rating CASOB,[9]; 63 g ai/ha,0
same,phytotoxicity rating CASOB,[9]; 250 g ai/ha,0
same,phytotoxicity rating CHEAL,[10]; 63 g ai/ha,40
same,phytotoxicity rating CHEAL,[10]; 250 g ai/ha,0
same,phytotoxicity rating ABUTH,[11]; 63 g ai/ha,0
same,phytotoxicity rating ABUTH,[11]; 250 g ai/ha,0
same,Post-emerge Herbicidal Activity IPOHE (phytotoxicity rating),[12]; 63 g ai/ha,30
same,Post-emerge Herbicidal Activity IPOHE (phytotoxicity rating),[12]; 250 g ai/ha,30
same,Post-emerge Herbicidal Activity ECHCG (phytotoxicity rating),[13]; 63 g ai/ha,0
same,Post-emerge Herbicidal Activity ECHCG (phytotoxicity rating),[13]; 250 g ai/ha,0
same,Post-emerge Herbicidal Activity SORHA (phytotoxicity rating),[14]; 63 g ai/ha,0
same,Post-emerge Herbicidal Activity SORHA (phytotoxicity rating),[14]; 250 g ai/ha,0
same,Post-emerge Herbicidal Activity SETVI (phytotoxicity rating),[15]; 63 g ai/ha,0
same,Post-emerge Herbicidal Activity SETVI (phytotoxicity rating),[15]; 250 g ai/ha,0
same,Post-emerge Herbicidal Activity AMARE (phytotoxicity rating),"[16]; 63 g ai/ha, rating scale 0-100 (0 no damage, 100 complete death)",20
same,Post-emerge Herbicidal Activity AMARE (phytotoxicity rating),"[16]; 250 g ai/ha, rating scale 0-100",20
same,Post-emerge Herbicidal Activity DIGSA (phytotoxicity rating),[17]; 63 g ai/ha,0
same,Post-emerge Herbicidal Activity DIGSA (phytotoxicity rating),[17]; 250 g ai/ha,0
same,Post-emerge Herbicidal Activity CASOB (phytotoxicity rating),[18]; 63 g ai/ha,0
same,Post-emerge Herbicidal Activity CASOB (phytotoxicity rating),[18]; 250 g ai/ha,10
same,Post-emerge Herbicidal Activity CHEAL (phytotoxicity rating),[19]; 63 g ai/ha,10
same,Post-emerge Herbicidal Activity CHEAL (phytotoxicity rating),[19]; 250 g ai/ha,10
same,Post-emerge Herbicidal Activity ABUTH (phytotoxicity rating),[20]; 63 g ai/ha,50
same,Post-emerge Herbicidal Activity ABUTH (phytotoxicity rating),[20]; 250 g ai/ha,30
same,phytotoxicity rating RICE,[21]; 63 g ai/ha,0
same,phytotoxicity rating RICE,[21]; 250 g ai/ha,0
same,phytotoxicity rating CORN,[22]; 63 g ai/ha,0
same,phytotoxicity rating CORN,[22]; 250 g ai/ha,0
